Results on one compound are retold here after paper PMC13351981, “A multiscale screening platform for rapid GPCR variant profiling reveals color-tuned JSR1 mutants” (Biophysical Journal, 2025).

Assay in all cases: UV/Vis absorption by HPLC-SEC diode array after reconstitution and purification
Assay type in all cases: binding
Common to all, as to conditions: 50 uM 9-cis retinal reconstitution; covalent (Schiff base to K321); pH 6.5, 20 C, LMNG/CHS

Assay [1] has as its target T1, Jumping Spider Rhodopsin 1 (JSR1) (Hasarius adansoni, UniProt B1B1U5, S199H).
T1 construct: gene HaRh1; JSR1 WT + C-terminal 3C site, Twin-Strep, TEV, eGFP, His8; Hi5 insect cells (baculovirus); tags removed by HRV 3C; monomer in LMNG/CHS

Assay [2] has as its target T2, Jumping Spider Rhodopsin 1 (JSR1) (Hasarius adansoni, UniProt B1B1U5, S199L).
T2 construct: gene HaRh1; JSR1 WT + C-terminal 3C site, Twin-Strep, TEV, eGFP, His8; Hi5 insect cells (baculovirus); tags removed by HRV 3C; monomer in LMNG/CHS

Assay [3] addresses T3, Jumping Spider Rhodopsin 1 (JSR1) (Hasarius adansoni, UniProt B1B1U5, S199I).
T3 construct: gene HaRh1; JSR1 WT + C-terminal 3C site, Twin-Strep, TEV, eGFP, His8; Hi5 insect cells (baculovirus); tags removed by HRV 3C; monomer in LMNG/CHS

For assay [4], the target named is T4, Jumping Spider Rhodopsin 1 (JSR1) (Hasarius adansoni, UniProt B1B1U5, S199V).
T4 construct: gene HaRh1; JSR1 WT + C-terminal 3C site, Twin-Strep, TEV, eGFP, His8; Hi5 insect cells (baculovirus); tags removed by HRV 3C; monomer in LMNG/CHS

Assay [5] addresses T5, Jumping Spider Rhodopsin 1 (JSR1) (Hasarius adansoni, UniProt B1B1U5).
T5 construct: gene HaRh1; JSR1 WT + C-terminal 3C site, Twin-Strep, TEV, eGFP, His8; Hi5 insect cells (baculovirus); tags removed by HRV 3C; monomer in LMNG/CHS

The target of assay [6] is T6, Jumping Spider Rhodopsin 1 (JSR1) (Hasarius adansoni, UniProt B1B1U5, S199F).
T6 construct: gene HaRh1; JSR1 WT + C-terminal 3C site, Twin-Strep, TEV, eGFP, His8; Hi5 insect cells (baculovirus); tags removed by HRV 3C; monomer in LMNG/CHS

The target in assay [7] is T7, Jumping Spider Rhodopsin 1 (JSR1) (Hasarius adansoni, UniProt B1B1U5, S199Y).
T7 construct: gene HaRh1; JSR1 WT + C-terminal 3C site, Twin-Strep, TEV, eGFP, His8; Hi5 insect cells (baculovirus); tags removed by HRV 3C; monomer in LMNG/CHS
T7 sequence (B1B1U5 entry or part of it S199Y): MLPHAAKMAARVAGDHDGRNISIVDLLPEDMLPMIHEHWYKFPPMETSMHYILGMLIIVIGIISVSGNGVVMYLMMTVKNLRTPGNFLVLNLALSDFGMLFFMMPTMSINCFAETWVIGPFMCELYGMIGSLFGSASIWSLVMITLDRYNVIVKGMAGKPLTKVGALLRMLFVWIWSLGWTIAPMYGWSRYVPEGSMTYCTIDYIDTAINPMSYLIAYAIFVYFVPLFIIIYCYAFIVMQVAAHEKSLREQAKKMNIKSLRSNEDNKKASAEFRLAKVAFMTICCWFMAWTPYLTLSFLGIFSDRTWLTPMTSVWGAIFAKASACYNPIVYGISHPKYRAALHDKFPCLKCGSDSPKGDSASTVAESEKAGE

T6 sequence (B1B1U5 entry or part of it S199F): as the sequence (B1B1U5 entry or part of it S199Y) above, with Y199F counted along it
T1 sequence (B1B1U5 entry or part of it S199H): as the sequence (B1B1U5 entry or part of it S199Y) above, with Y199H counted along it
T3 sequence (B1B1U5 entry or part of it S199I): as the sequence (B1B1U5 entry or part of it S199Y) above, with Y199I counted along it
T2 sequence (B1B1U5 entry or part of it S199L): as the sequence (B1B1U5 entry or part of it S199Y) above, with Y199L counted along it
T5 sequence (B1B1U5 entry or part of it): as the sequence (B1B1U5 entry or part of it S199Y) above, with Y199S counted along it
T4 sequence (B1B1U5 entry or part of it S199V): as the sequence (B1B1U5 entry or part of it S199Y) above, with Y199V counted along it

Consider `CC1=C(/C=C/C(C)=C\C=C\C(C)=C\C=O)C(C)(C)CCC1` [9-cis retinal], for which the “UV/Vis absorption by HPLC-SEC diode array after reconstitution and purification” value in assay [1] is given as “These mutations cause a full deprotonation in the 9-cis retinal-bound ground state”; in assay [2] it was “These mutations cause a full deprotonation in the 9-cis retinal-bound ground state”; in assay [3], “These mutations cause a full deprotonation in the 9-cis retinal-bound ground state”; in assay [4] it was “These mutations cause a full deprotonation in the 9-cis retinal-bound ground state”; in assay [5], “We observed that all mutants incorporated 9-cis retinal successfully|established workflow with 9-cis retinal-reconstituted JSR1”; in assay [6], “These mutations cause a full deprotonation in the 9-cis retinal-bound ground state”. Besides, the “UV/Vis absorption by HPLC-SEC diode array after reconstitution and purification” value in assay [7] is “These mutations cause a full deprotonation in the 9-cis retinal-bound ground state”.
